Source: paper PMC11801377, “A uniquely efficacious type of CFTR corrector with complementary mode of action” (Science Advances, 2024)

How the values were obtained:
CFTR mRNA = CFTR mRNA quantification in CFBE cells; type: cell-based, human; settings: 24 hours, 2000 nM
Procedure: CFBE-F508del-CFTR cells were seeded at 70,000 cells per well in a FNC-coated 48-well plate and incubated for 24 hours with 2000 nM of indicated correctors or DMSO vehicle diluted in growth medium deprived of FBS but supplemented with 1% HSA. CFBE-WT-CFTR cells were treated with DMSO vehicle accordingly. Then, cells were washed twice with PBS^+ and lysed in RLT buffer (QIAGEN) for 10 min on ice. Lysates were fully homogenized with QIAshredder (#79656, QIAGEN), and total RNA was extracted with an RNeasy Mini kit (#74106, QIAGEN) following the manufacturer’s instruction. At the end, a deoxyribonuclease treatment was performed with a DNA-free kit (Invitrogen, AM1906) following the manufacturer’s instruction. A reverse transcription (150 ng of total RNA per sample) with random hexamers was performed with the high-capacity cDNA Reverse Transcription Kit (#4368814, Thermo Fisher Scientific) for 2 hours at 37°C. Three microliters of cDNA was mixed with 10 μl of TaqMan Fast Universal PCR (polymerase chain reaction) Master Mix (2×) No AmpErase UNG (4367848, Life Technologies) containing the probe of interest (1:20), and a quantitative PCR was run [20″ at 95°C; 3″ at 95°C to 30″ at 60°C (40 cycles)] on a 7500 Applied Biosystems device. […] Reference gene-normalized CFTR mRNA expression was calculated using ΔΔCt method with CFTR expression in vehicle-treated CFBE-F508del cells set to 1.

[1] = test system: 10 most frequent CF-causing CFTR folding mutations; assay: CFTR correction (immunoblotting) in HEK-TREx cells expressing CF-causing CFTR folding mutations; type: cell-based, human; settings: many mutants
Source text: The human CFTR expressing HEK cell pools with the mutations described below were generated by integrase-mediated homologous recombination of the CFTR sequence into the T-REx HEK293 background (Thermo Fisher Scientific). This expression system allows the tetracycline-inducible expression of genes of interest from one defined insertion site. Parental T-REx-HEK293 cells were cultivated in growth medium: Dulbecco’s modified Eagle’s medium + GlutaMAX-I (#31966, Life Technologies), 10% dialyzed FBS (Gibco, #26400), penicillin (100 U/ml), streptomycin (100 μg/ml), hygromycin B (0.1 mg/ml; Life Technologies), blasticidin (5 μg/ml; Invitrogen, #R210-01), and 0.1 mM nonessential amino acid solution (Invitrogen, #11140-035). Recombinant T-REx-HEK-CFTR cells were generated by lipofectamine transfection (Life Technologies) of plasmids containing mutated versions of CFTR (RefSeq NM_000492) and then cultivated in selection medium [growth medium containing Geneticin (1 mg/ml) (Invitrogen, #10131-027) instead of hygromycin]. The plasmid constructs were synthetized by GENEART (Thermo Fisher Scientific) and designed with the WT CFTR intron 5 to 6 (880 nucleotides) to prevent leaky expression issues during the cloning process in bacteria. […]

Row | SMILES | effect on CFTR mRNA levels (CFTR mRNA) | correction by stand-alone treatment [1]
1 | Cc1nn(C)cc1S(=O)(=O)NC(=O)c1ccc(-n2ccc(OCC(C)(C)C(F)(F)F)n2)nc1N1C[C@@H](C)CC1(C)C [ELX, elexacaftor] | neither macrocycles nor ELX/TEZ affected these levels | no/little correction
2 | CC(C)(CO)c1cc2cc(NC(=O)C3(c4ccc5c(c4)OC(F)(F)O5)CC3)c(F)cc2n1C[C@@H](O)CO [TEZ, tezacaftor] | neither macrocycles nor ELX/TEZ affected these levels | no/little correction
